Test results taken from patent US8518945B2, “Pyrrolopyrazine kinase inhibitors” (Hoffmann-La Roche Inc., priority 2010, dated 2013).

Biological target: T1, h-jak3(810-1124) (JAK3: Recombinant human kinase domain) (Homo sapiens, UniProt P52333)
T1 construct: jak3(810- 1124)-sf9-c; made in house; host or cells: Sf9
Assay: Determination of IC50 of Janus Kinase (JAK) inhibition: JAK3 radioactive end-point 33P-ATP kinase assay
Format: biochemical
Conditions: no additive; ATP 1.5 uM, peptide 50 uM, 20 minutes, room temperature; read-out: Ic50 h-jak3(810-1124)-sf9-c: no additive

T1 sequence (P52333 810-1124): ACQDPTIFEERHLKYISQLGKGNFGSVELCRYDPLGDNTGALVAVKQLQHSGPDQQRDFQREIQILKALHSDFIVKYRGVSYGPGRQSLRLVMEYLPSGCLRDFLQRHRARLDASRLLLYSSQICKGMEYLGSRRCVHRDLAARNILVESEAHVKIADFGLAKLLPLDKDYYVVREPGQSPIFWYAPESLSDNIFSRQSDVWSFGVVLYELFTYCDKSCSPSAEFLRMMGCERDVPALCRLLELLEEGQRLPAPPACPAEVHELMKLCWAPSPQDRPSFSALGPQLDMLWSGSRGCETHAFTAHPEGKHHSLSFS

IC50 [nM]	SMILES
0.68	Cc1nc(-c2cnc3[nH]cc(C(=O)N[C@@H](C(=O)N4CC(C#N)C4)C4CC4)c3n2)cn1CC(F)(F)F [Example I-165, 2-[2-Methyl-1-(2,2,2-trifluoro-ethyl)-1H-imidazol-4-yl]-5H-pyrrolo[2,3-b]pyrazine-7-carboxylic acid [(R)-2-(3-cyano-azetidin-1-yl)-1-cyclopropyl-2-oxo-ethyl]-amide]
0.87	CCn1cc(-c2cnc3[nH]cc(C(=O)N[C@@H](C(=O)N4CCCC4)C4(C)CC4)c3n2)cn1 [Example I-34, 2-(1-Ethyl-1H-pyrazol-4-yl)-5H-pyrrolo[2,3-b]pyrazine-7-carboxylic acid [(R)-1-(1-methyl-cyclopropyl)-2-oxo-2-pyrrolidin-1-yl-ethyl]-amide]
0.51	CCn1cc(-c2cnc3[nH]cc(C(=O)N[C@@H](C(=O)N4CCC(C)(C#N)C4)C(C)(C)C)c3n2)cn1 (stereo partly drawn) [Example I-28, 2-(1-Ethyl-1H-pyrazol-4-yl)-5H-pyrrolo[2,3-b]pyrazine-7-carboxylic acid [(R)-1-(3-cyano-3-methyl-pyrrolidine-1-carbonyl)-2,2-dimethyl-propyl]-amide]

Tested on: not given
Assay: not given
Conditions: not given

SMILES	melting point [°C]
CC[C@@H](NC(=O)c1c[nH]c2ncc(C3CC3)nc12)C(=O)N1CCCC1 [Example 23, 2-Cyclopropyl-5H-pyrrolo[2,3-b]pyrazine-7-carboxylic acid [(R)-1-(pyrrolidine-1-carbonyl)-propyl]-amide]	240.9 to 242.5
Cc1nc(-c2cnc3[nH]cc(C(=O)N[C@@H](C(=O)N4CC(C#N)C4)C4CC4)c3n2)cn1-c1ccccc1	175 to 179
CC(C)[C@@H](NC(=O)c1c[nH]c2ncc(C3CC3)nc12)C(=O)N1CCOCC1 [Example 27, 2-Cyclopropyl-5H-pyrrolo[2,3-b]pyrazine-7-carboxylic acid [(R)-2-methyl-1-(morpholine-4-carbonyl)-propyl]-amide]	154 to 156
CCn1cc(-c2cnc3[nH]cc(C(=O)N[C@@H](C(=O)N4CCCC4)C4CC4)c3n2)cn1 [Example 4, 2-(1-Ethyl-1H-pyrazol-4-yl)-5H-pyrrolo[2,3-b]pyrazine-7-carboxylic acid ((R)-1-cyclopropyl-2-oxo-2-pyrrolidin-1-yl-ethyl)-amide]	210 to 212
CC(C)[C@@H](NC(=O)c1c[nH]c2ncc(C3CC3)nc12)C(=O)N1CCCCC1 [Example 26, 2-Cyclopropyl-5H-pyrrolo[2,3-b]pyrazine-7-carboxylic acid [(R)-2-methyl-1-(piperidine-1-carbonyl)-propyl]-amide]	183 to 185
CC(C)(C)[C@@H](NC(=O)c1c[nH]c2ncc(C3CC3)nc12)C(=O)N1CCC(C#N)CC1 [Example 11, 2-Cyclopropyl-5H-pyrrolo[2,3-b]pyrazine-7-carboxylic acid [(R)-1-(4-cyano-piperidine-1-carbonyl)-2,2-dimethyl-propyl]-amide]	249 to 251
O=C(N[C@@H](C(=O)N1CCCC1)C1CC1)c1c[nH]c2ncc(C3CC3)nc12 [Example 25, 2-Cyclopropyl-5H-pyrrolo[2,3-b]pyrazine-7-carboxylic acid ((R)-1-cyclopropyl-2-oxo-2-pyrrolidin-1-yl-ethyl)-amide]	254 to 256
Cc1nc(-c2cnc3[nH]cc(C(=O)N[C@@H](C(=O)N4CC(C#N)C4)C(C)(C)C)c3n2)cn1-c1cc(F)cc(F)c1 [Example 136, 2-[1-(3,5-Difluoro-phenyl)-2-methyl-1H-imidazol-4-yl]-5H-pyrrolo[2,3-b]pyrazine-7-carboxylic acid [(R)-1-(3-cyano-azetidine-1-carbonyl)-2,2-dimethyl-propyl]-amide]	187 to 190
CC(C)[C@@H](NC(=O)c1c[nH]c2ncc(C3CC3)nc12)C(=O)N1CCCC1 [Example 24, 2-Cyclopropyl-5H-pyrrolo[2,3-b]pyrazine-7-carboxylic acid [(R)-2-methyl-1-(pyrrolidine-1-carbonyl)-propyl]-amide]	171 to 172.1

Results, then the compound that gave them:

melting point [°C]	SMILES
178 to 185	CN1CCN(c2ccc(-c3cnc4[nH]cc(C(=O)N[C@@H](C(=O)N5CC(C#N)C5)C5CC5)c4n3)cc2)CC1 [Example 144, 2-[4-(4-Methyl-piperazin-1-yl)-phenyl]-5H-pyrrolo[2,3-b]pyrazine-7-carboxylic acid [(R)-2-(3-cyano-azetidin-1-yl)-1-cyclopropyl-2-oxo-ethyl]-amide]
186 to 192	N#CC1CN(C(=O)[C@H](NC(=O)c2c[nH]c3ncc(-c4ccc(N5CCOCC5)cc4)nc23)C2CC2)C1 [Example 145, 2-(4-Morpholin-4-yl-phenyl)-5H-pyrrolo[2,3-b]pyrazine-7-carboxylic acid [(R)-2-(3-cyano-azetidin-1-yl)-1-cyclopropyl-2-oxo-ethyl]-amide]
255 to 256	Cc1nc(-c2cnc3[nH]cc(C(=O)N[C@@H](C(=O)N4CC(C#N)C4)C4CC4)c3n2)cn1CC(F)(F)F [Example I-165, 2-[2-Methyl-1-(2,2,2-trifluoro-ethyl)-1H-imidazol-4-yl]-5H-pyrrolo[2,3-b]pyrazine-7-carboxylic acid [(R)-2-(3-cyano-azetidin-1-yl)-1-cyclopropyl-2-oxo-ethyl]-amide]
218 to 220	CCn1cc(-c2cnc3[nH]cc(C(=O)N[C@@H](C(=O)N4CCCC4)C4(C)CC4)c3n2)cn1 [Example I-34, 2-(1-Ethyl-1H-pyrazol-4-yl)-5H-pyrrolo[2,3-b]pyrazine-7-carboxylic acid [(R)-1-(1-methyl-cyclopropyl)-2-oxo-2-pyrrolidin-1-yl-ethyl]-amide]
228 to 230	CCn1cc(-c2cnc3[nH]cc(C(=O)N[C@@H](C(=O)N4CCC(C)(C#N)C4)C(C)(C)C)c3n2)cn1 (stereo partly drawn) [Example I-28, 2-(1-Ethyl-1H-pyrazol-4-yl)-5H-pyrrolo[2,3-b]pyrazine-7-carboxylic acid [(R)-1-(3-cyano-3-methyl-pyrrolidine-1-carbonyl)-2,2-dimethyl-propyl]-amide]
200 to 202	N#CC1CN(C(=O)[C@H](NC(=O)c2c[nH]c3ncc(-c4ccccc4)nc23)C2CC2)C1 [Example 147, 2-Phenyl-5H-pyrrolo[2,3-b]pyrazine-7-carboxylic acid [(R)-2-(3-cyano-azetidin-1-yl)-1-cyclopropyl-2-oxo-ethyl]-amide]
175 to 180	CN(C)c1ccc(-c2cnc3[nH]cc(C(=O)N[C@@H](C(=O)N4CC(C#N)C4)C4CC4)c3n2)cc1 [Example 146, 2-(4-Dimethylamino-phenyl)-5H-pyrrolo[2,3-b]pyrazine-7-carboxylic acid [(R)-2-(3-cyano-azetidin-1-yl)-1-cyclopropyl-2-oxo-ethyl]-amide]
171 to 176	Cc1nc(-c2cnc3[nH]cc(C(=O)N[C@@H](C(=O)N4CC(C#N)C4)C(C)(C)C)c3n2)cn1-c1cccc(F)c1 [Example 137, 2-[1-(3-Fluorophenyl)-2-methyl-1H-imidazol-4-yl]-5H-pyrrolo[2,3-b]pyrazine-7-carboxylic acid [(R)-1-(3-cyano-azetidine-1-carbonyl)-2,2-dimethyl-propyl]-amide]
